The values that follow are results of earlier work, collected in US10260097B2, “Method of using a gene expression profile to determine cancer responsiveness to an anti-angiogenic agent” (Almac Diagnostics Limited, priority 2011, dated 2019).

The test system of one series is ovarian cancer patients. As to conditions: ovarian cancer patients receiving bevacizumab monotherapy.
Another series relates to renal cancer patients. As to conditions: renal cancer patients receiving bevacizumab monotherapy.
Another series relates to rectal cancer patients. The following applies: rectal cancer patients receiving bevacizumab monotherapy.
Another series concerns most cancers. As to conditions: bevacizumab added to cytotoxic chemotherapy.

As for bevacizumab, the “patients showing partial regression” value with ovarian cancer patients is 21%; in the series on renal cancer patients, 10%; in the series with rectal cancer patients, 33%. Moreover, the “overall survival (OS) benefit” value in the series with most cancers is reported as “no overall survival (OS) benefit”.
